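Following 48 hours of exposure in 96-well plates, responses at five concentrations were used to interpolate endpoints linearly. Abbreviation: GI50, concentration required for 50% inhibition of growth. Definition used: TGI = concentration required for complete inhibition of growth.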
Key:
Assay in all cases: NCI anticancer screen, dose series, 48 h
MALME-3M melanoma = tested on: MALME-3M melanoma
NCI-H226 lung = tested on: NCI-H226 lung
UACC-257 melanoma = tested on: UACC-257 melanoma
SNB-75 CNS = tested on: SNB-75 CNS
CCRF-CEM leukemia = tested on: CCRF-CEM leukemia
OVCAR-5 ovarian = tested on: OVCAR-5 ovarian
NCI-H23 lung = tested on: NCI-H23 lung
SK-OV-3 ovarian = tested on: SK-OV-3 ovarian
UACC-62 melanoma = tested on: UACC-62 melanoma
MDA-MB-435 = tested on: MDA-MB-435

Compound	TGI (MALME-3M melanoma)	TGI (NCI-H226 lung)	TGI (UACC-257 melanoma)	TGI (SNB-75 CNS)	TGI (CCRF-CEM leukemia)	TGI (OVCAR-5 ovarian)	TGI (NCI-H23 lung)	TGI (SK-OV-3 ovarian)	TGI (UACC-62 melanoma)	TGI (MDA-MB-435)	GI50 (MALME-3M melanoma)	GI50 (NCI-H226 lung)	GI50 (UACC-257 melanoma)	GI50 (SNB-75 CNS)	GI50 (MDA-MB-435)	GI50 (CCRF-CEM leukemia)	GI50 (SK-OV-3 ovarian)	GI50 (OVCAR-5 ovarian)	GI50 (UACC-62 melanoma)
CC1CCN(c2cc(-c3cc4ccccc4o3)oc(=O)c2C#N)CC1	> 100 µM	> 100 µM	> 100 µM	> 100 µM	> 100 µM	> 100 µM	> 100 µM												
CC1=NN(C(=O)c2ccc(C)cc2)C(=O)C1N=Nc1ccccc1C(=O)O (stereo not given)	> 100 µM	> 100 µM	> 100 µM	98.9 µM	> 100 µM	> 100 µM	> 100 µM	> 100 µM	> 100 µM										
O=C1Nc2ccccc2C1S(=O)(=O)c1ccccc1 (stereo not given)	> 100 µM	> 100 µM	> 100 µM	> 100 µM	> 100 µM	> 100 µM	> 100 µM	> 100 µM	> 100 µM	> 100 µM									
Nc1ncc(Sc2ccccc2C(=O)O)s1		> 100 µM	> 100 µM	> 100 µM	> 100 µM	> 100 µM	> 100 µM		> 100 µM	> 100 µM									
C/C(=N\Nc1nc2ccccc2n1C)c1ccc2ccccc2n1	16.3 µM	6.83 µM	> 47 µM	46.4 µM	1.67 µM	11 µM	31 µM	> 100 µM	9.79 µM	42.7 µM									
Clc1ccc(Cn2cc(/C=N/n3cnnc3)c3ccccc32)cc1	> 100 µM	4.14 µM	> 100 µM	68.5 µM	> 100 µM	42.5 µM	> 100 µM	> 100 µM	> 100 µM	> 100 µM									
COc1ccc2c(C(=O)c3c(C)n(CCN4CCOCC4)c4ccccc34)cccc2c1	80.7 µM	> 100 µM	97.9 µM		27.1 µM	> 100 µM	> 100 µM	> 100 µM	> 100 µM	22.8 µM									
CC(C)(CC1(C)NC(=O)NC1=O)OCc1ccccc1 (stereo not given)	> 100 µM		> 100 µM	> 100 µM		> 100 µM	> 100 µM	> 100 µM	> 100 µM	> 100 µM									
COc1cccc2c1[C@H]1OC(=O)NC1CCCCC2 (stereo not given in full)	> 100 µM	> 100 µM	> 100 µM	> 100 µM	> 100 µM	> 100 µM	> 100 µM	> 100 µM	> 100 µM										
C=C1C(=O)O[C@@H]2[C@H]1C[C@H](I)[C@@]1(C)CC[C@H](O1)[C@](C)(I)CCCC(C)[C@@H]2O (stereo not given in full)	7.33 µM	3.85 µM	20.1 µM	21.3 µM	1.59 µM	26.5 µM	20.5 µM	30.7 µM	16.4 µM	11.6 µM									
COc1cccc(Nc2nc(NS(=O)(=O)c3cc(C)c(Cl)cc3S)n[nH]2)c1	> 100 µM	> 100 µM	> 100 µM	> 100 µM	> 100 µM	> 100 µM	> 100 µM	> 100 µM	> 100 µM	> 100 µM									
Cn1c(=O)n2n(c1=O)C(S(=O)c1ccccc1)C2 (stereo not given)			> 100 µM	> 100 µM	> 100 µM	> 100 µM	> 100 µM	> 100 µM	> 100 µM	> 100 µM									
CCCCOCCOCCOC1=C(Cl)C(=O)c2c(O)ccc(O)c2C1=O		3.21 µM	2.6 µM	1.25 µM	0.555 µM	5.33 µM	2.92 µM	14.8 µM	3.47 µM										
O/N=C1\CSc2ccccc2C1	> 100 µM	> 100 µM	> 100 µM		> 100 µM	> 100 µM	> 100 µM	> 100 µM	> 100 µM	> 100 µM									
O[C@]12c3ccccc3C1CCCCC2N1CCOCC1 (stereo not given in full)	> 100 µM	> 100 µM	> 100 µM	> 100 µM	> 100 µM		> 100 µM	> 100 µM	> 100 µM										
Cc1ccc2oc3c(ccc(=O)n3C)c(=O)c2c1	> 100 µM	> 100 µM		> 100 µM	> 100 µM	> 100 µM	> 100 µM	> 100 µM	> 100 µM	> 100 µM									
CO/C(=N\N=C(/c1ccccc1)C(F)(F)F)c1ccncc1	> 100 µM	77.4 µM		> 100 µM	77 µM	> 100 µM	> 100 µM	> 100 µM	> 100 µM	> 100 µM									
CC(=O)Oc1ccc2cc(Oc3ccccc3)c(=O)oc2c1	> 100 µM	> 100 µM	> 100 µM	> 100 µM		> 100 µM	> 100 µM												
O=C(O)c1ccccc1CC(Cc1ccccc1)C(=O)O (stereo not given)	> 100 µM	> 100 µM	> 100 µM	> 100 µM	> 100 µM	> 100 µM	> 100 µM	> 100 µM		> 100 µM									
CCOc1cc(/C=C/C(=O)CC(=O)/C=C/c2ccc(OC(=O)CNCCN(CC)CC)c(OCC)c2)ccc1OC(=O)CNCCN(CC)CC	4.12 µM	5.17 µM	3.48 µM	62.4 µM	1.66 µM	5.43 µM		20.8 µM	3.16 µM	6.31 µM	1.91 µM	2.15 µM	1.32 µM	6 µM	1.56 µM	0.394 µM	5.39 µM	2.27 µM	1.53 µM
Cc1cc(C)nc(NC(=S)Nc2ccc(Cl)cc2)c1	> 100 µM	> 100 µM	> 100 µM	63.7 µM	> 100 µM	> 100 µM		> 100 µM	> 100 µM	> 100 µM									
COC(=O)c1ccccc1/C=C1\Cc2ccc3ccccc3c2C1C (stereo not given)	> 100 µM	> 100 µM	> 100 µM	> 100 µM	> 100 µM	> 100 µM			> 100 µM	> 100 µM									
O=C([O-])C1([n+]2c(-c3ccccc3)cc(-c3ccccc3)cc2-c2ccccc2)CC1	> 100 µM	> 100 µM	> 100 µM	> 100 µM	> 100 µM	> 100 µM	> 100 µM		67.7 µM	50.7 µM									
